Legend:
[1] = molecular target: T1, PDE III (Cavia porcellus, UniProt H0VIU9); experiment: Non-sensitized guinea-pig right ventricle strips: increase in developed tension (PDE III inhibitory activity); type: cell-based; details: concentration causing 50% increase in developed tension; untreated (non-sensitized) strips; 37° C., 1 Hz; read-out: Guinea-Pig Non-Sensitized right ventricle strips (EC50μ M)
T1 construct: their hearts were removed and 2 ventricular preparations; from tissue; host or cells: guinea-pig right ventricle strips
T1 sequence (H0VIU9 1-1132): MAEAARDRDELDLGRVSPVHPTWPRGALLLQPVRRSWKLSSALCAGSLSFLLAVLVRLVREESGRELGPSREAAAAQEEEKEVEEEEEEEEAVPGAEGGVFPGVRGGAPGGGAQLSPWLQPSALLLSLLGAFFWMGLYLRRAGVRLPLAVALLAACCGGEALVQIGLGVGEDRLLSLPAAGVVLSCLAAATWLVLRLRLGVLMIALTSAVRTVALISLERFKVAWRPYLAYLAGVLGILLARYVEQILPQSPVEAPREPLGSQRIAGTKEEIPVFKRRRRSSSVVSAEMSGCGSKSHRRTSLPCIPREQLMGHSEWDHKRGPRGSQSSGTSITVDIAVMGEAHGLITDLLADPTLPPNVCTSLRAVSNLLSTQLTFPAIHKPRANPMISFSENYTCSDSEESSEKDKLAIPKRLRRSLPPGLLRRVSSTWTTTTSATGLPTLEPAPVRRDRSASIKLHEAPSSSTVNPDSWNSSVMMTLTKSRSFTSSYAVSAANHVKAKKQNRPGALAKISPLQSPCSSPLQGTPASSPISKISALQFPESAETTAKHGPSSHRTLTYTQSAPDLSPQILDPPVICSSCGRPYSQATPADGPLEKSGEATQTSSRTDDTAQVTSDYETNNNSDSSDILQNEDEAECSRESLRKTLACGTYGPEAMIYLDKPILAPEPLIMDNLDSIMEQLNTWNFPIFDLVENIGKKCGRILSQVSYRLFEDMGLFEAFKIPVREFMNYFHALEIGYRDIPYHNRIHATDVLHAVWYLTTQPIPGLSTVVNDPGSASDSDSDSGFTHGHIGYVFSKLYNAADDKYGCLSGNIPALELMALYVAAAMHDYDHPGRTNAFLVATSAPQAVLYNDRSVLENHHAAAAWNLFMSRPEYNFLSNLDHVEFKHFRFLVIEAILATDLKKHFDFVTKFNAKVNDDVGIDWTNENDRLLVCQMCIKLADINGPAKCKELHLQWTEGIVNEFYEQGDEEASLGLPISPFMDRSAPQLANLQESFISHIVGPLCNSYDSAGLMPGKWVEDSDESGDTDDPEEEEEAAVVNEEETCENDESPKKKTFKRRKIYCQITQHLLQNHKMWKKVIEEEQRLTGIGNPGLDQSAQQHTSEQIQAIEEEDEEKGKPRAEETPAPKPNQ
Description: (§1) There is, however, a synergistic interaction between selective PDE III and PDE IV inhibitors in guinea-pig ventricle. […] There were then mounted in organ baths containing modified Krebs-Henseleit solution of the following composition (mM): NaCl 118; NaHCO3 25; Glucose 11; KCl 5.4; CaCl2 2.5; NaH2PO4 1.2 and MgCl2 0.8. The physiological buffer was maintained at 37° C. and continually aerated with 95% O2 / 5% CO2 v/v. The preparations were placed under 1 g resting tension and electrically stimulated to contract at 1 Hz whilst force of contraction was measured using an isometric force transducer. Preparations were equilibrated for 60 minutes during which they were washed every 15 minutes with fresh buffer. […] Concentrations causing a 50% increase (EC50) were calculated.

[2] = test system: PDE IV; experiment: Guinea-pig right ventricle strips sensitized with a PDE III inhibitor (e.g. amrinone): increase in developed tension (PDE IV inhibitory activity); type: cell-based; details: concentration causing 50% increase in developed tension; strips pre-treated with selective PDE III inhibitor (e.g. amrinone) 10 minutes before; 37° C., 1 Hz; read-out: Guinea-Pig Sensitized right ventricle strips (EC50μ M)
Description: as §1

[3] = test system: isolated guinea-pig ventricles; details: literature (Gristwood and Owen, Br. J. Pharmacol., 87, 91P., 1985); cited from earlier work

| Structure (SMILES) | EC50 [1] [µM] | EC50 [2] [µM] | inotropic response in isolated guinea-pig ventricles [3] |
| --- | --- | --- | --- |
| CCCn1c(=O)c2[nH]cnc2n(-c2cccc(Cl)c2)c1=O [Compound 2] | > 100 | 0.1 |  |
| CCCn1c(=O)c2[nH]cnc2n(-c2ccc(Cl)cc2)c1=O [Compound 1, 1-n-propyl-3-(4-chlorophenyl)-xanthine] | > 100 | 1.6 |  |
| CCCn1c(=O)c2[nH]cnc2n(-c2ccc(Br)cc2)c1=O [Compound 5] | > 100 | 0.9 |  |
| COc1ccc(C2CNC(=O)C2)cc1OC1CCCC1 (stereo not shown) [rolipram] |  |  | have no effect |
| CCCCCCn1c(=O)c2[nH]cnc2n(-c2ccc3c(c2)OCO3)c1=O [Compound 36, 1-n-hexyl-3-(3,4-methylenedioxyphenyl)-xanthine] | > 100 | 1 |  |
| CCCCn1c(=O)c2[nH]cnc2n(-c2ccc(OC)cc2)c1=O [Compound 20] | > 100 | 0.3 |  |
| CCCn1c(=O)c2[nH]cnc2n(-c2cccc(OC)c2)c1=O [Compound 9] | > 100 | 0.2 |  |
| CCCn1c(=O)c2[nH]c(C)nc2n(-c2ccccc2)c1=O [Compound B, 1propyl-3-phenyl-8-methylxanthine, reference compound] | > 100 | 7 |  |
| CC(=O)Nc1ccc(-c2c[nH]c(=O)cn2)cc1 [SK&F 94120] |  |  | produce a positive inotropic response |
| Cn1c(=O)c2[nH]cnc2n(-c2ccccc2)c1=O [Compound A, 1methyl-3-phenylxanthine, reference compound] | > 100 | 8.9 |  |
| Cn1c(=O)c2[nH]cnc2n(C)c1=O [THEOPHYLLINE, reference compound] | 1000 | 1520 |  |
| CCCCn1c(=O)c2[nH]cnc2n(-c2ccc(F)cc2)c1=O [Compound 18] | > 100 | 0.2 |  |
| CCCn1c(=O)c2[nH]cnc2n(-c2cccc([N+](=O)[O-])c2)c1=O [Compound 10] | > 100 | 0.4 |  |
| CCCCn1c(=O)c2[nH]cnc2n(-c2cccc(OC)c2)c1=O [Compound 21, 1-n-butyl-3-(3-methoxyphenyl)-xanthine] | > 100 | 1.2 |  |
| CCCn1c(=O)c2[nH]cnc2n(-c2ccc(Cl)c(Cl)c2)c1=O [Compound 12, 1-n-propyl-3-(3,4-dicholorophenyl)-xanthine] | > 100 | 1.3 |  |

— patent US5223504A, “Xanthine compounds and compositions, and methods of using them” (Laboratorios Almirall SA, priority 1989, dated 1993)
